Laboratory results taken from ChEMBL document CHEMBL1125452, “Rationally designed "dipeptoid" analogues of CCK. A Free-Wilson/Fujita-Ban analysis of some alpha-methyltryptophan derivatives as CCK-B antagonists” (J Med Chem, 1992).
pKi: −log10 of the molar value.

Biological target: T1, Gastrin/cholecystokinin type B receptor (Mus musculus, UniProt P56481)
T1 sequence (P56481 whole entry): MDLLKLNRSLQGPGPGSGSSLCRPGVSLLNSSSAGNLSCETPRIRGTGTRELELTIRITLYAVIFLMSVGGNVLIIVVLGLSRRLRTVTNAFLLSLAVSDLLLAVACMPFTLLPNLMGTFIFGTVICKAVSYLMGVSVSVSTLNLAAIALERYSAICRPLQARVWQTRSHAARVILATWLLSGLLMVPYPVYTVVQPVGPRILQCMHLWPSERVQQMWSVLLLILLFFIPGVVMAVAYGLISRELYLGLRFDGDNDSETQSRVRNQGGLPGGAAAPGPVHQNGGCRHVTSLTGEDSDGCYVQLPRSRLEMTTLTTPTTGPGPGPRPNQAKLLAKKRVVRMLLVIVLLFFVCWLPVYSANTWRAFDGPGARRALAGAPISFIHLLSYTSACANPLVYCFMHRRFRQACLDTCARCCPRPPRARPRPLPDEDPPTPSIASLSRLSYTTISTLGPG
Assay: Cholecystokinin type B receptor binding assay performed on homogenized cerebral cortex from male mouse
Type: tissue-based

| SMILES | pKi |
| --- | --- |
| O=C(O)CCC(=O)N[C@@H](CNC(=O)[C@H](Cc1c[nH]c2ccccc12)NC(=O)OC1C2CC3CC(C2)CC1C3)c1ccccc1 (some centres not stated) | 6.01 |
| C[C@@H]1CCCC[C@H]1OC(=O)N[C@](C)(Cc1c[nH]c2ccccc12)C(=O)N[C@H](CNC(=O)/C=C/C(=O)O)Cc1ccccc1 | 8.94 |
| O=C(O)C[C@@H](Cc1ccccc1)NC(=O)[C@H](Cc1c[nH]c2ccccc12)NC(=O)OC1C2CC3CC(C2)CC1C3 (some centres not stated) | 7.03 |
| C[C@@H]1CCCC[C@H]1OC(=O)N[C@](C)(Cc1c[nH]c2ccccc12)C(=O)NC[C@H](NC(=O)CCC(=O)O)c1ccccc1 | 8.43 |
| O=C(N[C@H](Cc1c[nH]c2ccccc12)C(=O)N[C@H](CO)Cc1ccccc1)OC1C2CC3CC(C2)CC1C3 (stereo in doubt; 10) | 5.68 |
| C[C@](Cc1c[nH]c2ccccc12)(NC(=O)OC1C2CC3CC(C2)CC1C3)C(=O)N[C@H](CNC(=O)CCC(=O)O)Cc1ccccc1 (some centres not stated) | 8.40 |
| C[C@](Cc1c[nH]c2ccccc12)(NC(=O)OC12CC3CC(CC(C3)C1)C2)C(=O)N[C@H](CO)Cc1ccccc1 | 7.69 |
| C[C@@H]1CCCC[C@H]1OC(=O)N[C@](C)(Cc1c[nH]c2ccccc12)C(=O)N[C@H](CO)Cc1ccccc1 (stereo in doubt; 11) | 7.82 |
| C[C@@H]1CCCC[C@H]1OC(=O)N[C@](C)(Cc1c[nH]c2ccccc12)C(=O)N[C@H](CNC(=O)CCC(=O)O)Cc1ccccc1 | 7.91 |
| C[C@@H]1CCCC[C@H]1OC(=O)NC(C)(Cc1c[nH]c2ccccc12)C(=O)NCCc1ccccc1 (some centres not stated) | 6.87 |
| C[C@](Cc1c[nH]c2ccccc12)(NC(=O)OC1C2CC3CC(C2)CC1C3)C(=O)N[C@H](CO)Cc1ccccc1 (some centres not stated) | 8.22 |
| C[C@](Cc1c[nH]c2ccccc12)(NC(=O)OC1C2CC3CC(C2)CC1C3)C(=O)N[C@H](CNC(=O)/C=C/C(=O)O)Cc1ccccc1 (some centres not stated) | 9.15 |
| C[C@@](Cc1c[nH]c2ccccc12)(NC(=O)OC1C2CC3CC(C2)CC1C3)C(=O)N[C@H](CNC(=O)CCC(=O)O)Cc1ccccc1 (some centres not stated) | 6.78 |
| CC(Cc1c[nH]c2ccccc12)(NC(=O)OC12CC3CC(CC(C3)C1)C2)C(=O)NCCc1ccccc1 (configuration not stated) | 6.72 |
| O=C(O)C[C@@H](Cc1ccccc1)NC(=O)[C@@H](Cc1c[nH]c2ccccc12)NC(=O)OC1C2CC3CC(C2)CC1C3 (some centres not stated) | 6.86 |
| O=C(O)CCC(=O)NC(CNC(=O)[C@@H](Cc1c[nH]c2ccccc12)NC(=O)OC1C2CC3CC(C2)CC1C3)c1ccccc1 (some centres not stated) | 6.45 |
| C[C@@H]1CCCC[C@H]1OC(=O)N[C@](C)(Cc1c[nH]c2ccccc12)C(=O)N[C@H](CO)Cc1ccccc1 (stereo in doubt; 28) | 8.05 |
| O=C(N[C@H](Cc1c[nH]c2ccccc12)C(=O)N[C@H](CO)Cc1ccccc1)OC1C2CC3CC(C2)CC1C3 (stereo in doubt; 9) | 6.09 |

The remaining lines, values ahead:

| pKi | SMILES |
| --- | --- |
| 9.29 | C[C@](Cc1c[nH]c2ccccc12)(NC(=O)OC1C2CC3CC(C2)CC1C3)C(=O)NC[C@H](NC(=O)/C=C/C(=O)O)c1ccccc1 (some centres not stated) |
| 6.90 | CC(Cc1c[nH]c2ccccc12)(NC(=O)O[C@H]1CC2CCC1(C)C2(C)C)C(=O)NCCc1ccccc1 (some centres not stated) |
| 6.40 | CC1(C)C2CCC1(C)[C@@H](OC(=O)N[C@@H](Cc1c[nH]c3ccccc13)C(=O)NC[C@H](NC(=O)CCC(=O)O)c1ccccc1)C2 (some centres not stated) |
| 6.52 | CC1(C)C2CCC1(C)[C@@H](OC(=O)N[C@H](Cc1c[nH]c3ccccc13)C(=O)NC[C@H](NC(=O)CCC(=O)O)c1ccccc1)C2 (some centres not stated) |
| 8.69 | CC1(C)[C@H]2CC[C@@]1(C)[C@@H](OC(=O)N[C@](C)(Cc1c[nH]c3ccccc13)C(=O)NC[C@H](NC(=O)CCC(=O)O)c1ccccc1)C2 |
| 7.81 | CC1(C)C2CCC1(C)C(OC(=O)N[C@](C)(Cc1c[nH]c3ccccc13)C(=O)N[C@H](CO)Cc1ccccc1)C2 (some centres not stated) |
| 8.66 | CC1(C)C2CCC1(C)[C@@H](OC(=O)N[C@](C)(Cc1c[nH]c3ccccc13)C(=O)NC[C@H](NC(=O)/C=C/C(=O)O)c1ccccc1)C2 (some centres not stated) |
| 7.09 | CC1(C)C2CCC1(C)[C@@H](OC(=O)N[C@H](Cc1c[nH]c3ccccc13)C(=O)NC[C@H](NC(=O)/C=C/C(=O)O)c1ccccc1)C2 (some centres not stated) |
| 8.41 | C[C@@H]1CCCC[C@H]1OC(=O)N[C@](C)(Cc1c[nH]c2ccccc12)C(=O)NC[C@H](NC(=O)/C=C/C(=O)O)c1ccccc1 |
